Format in all cases: functional
One experiment deals with KB. Put plainly: Cytotoxicity against human KB cells. The settings on record: read-out: ED50 (the source's name).
Experiment [1] deals with P388. Put plainly: In vivo antitumor activity against mouse P388 cells at 0.75 mg/kg relative to control.
Experiment [2] has as its system P388. Put plainly: In vivo antitumor activity against mouse P388 cells at 1 mg/kg relative to control.

In brackets after ≈: the same amount, converted by molar mass.

As for `C=C1CC[C@]2(C)CC[C@]3(C)C4=CC=C5C(=CC(=O)C(O)=C5C)[C@]4(C)CC[C@@]3(C)[C@@H]2C1` [ISOIGUESTERIN], in the experiment with KB, the EC50 is 0.24 µg/mL (≈ 0.593 µM). Further, the T/C amounted to 125% in the experiment with P388 [1] and 147% in the experiment with P388 [2].

The record behind these values is ChEMBL document CHEMBL1151372, “Isoiguesterin, a new antileukemic bisnortriterpene from Salacia madagascariensis” (1981).
